Measurements taken from patent US9745282B2, “Indoline compounds as aldosterone synthase inhibitors” (Merck Sharp & Dohme Corp., priority 2012, dated 2017).

Assays:
human CYP11B1 = human CYP11B1 (Homo sapiens (Human), UniProt P15538); assay: V79-Human-CYP11B1 cell assay, modified protocol; assay type: cell-based; conditions: V79 cells expressing human CYP11B1
Protocol: (§1) V79 cell lines stably expressing the either the human CYP11B2 or the human CYP11B1 enzyme were generated using a standard transfection protocol. V79 cells were transfected with plasmids pTriEx3-Hygro-hCyp11B2 or pTriEx3-Hygro-hCyp11B1 using Lipofectamine2000 reagent. V79 cells that stably express the human CYP11B2 or human CYP11B1 enzyme were selected for and maintained in DMEM supplemented with 10% FBS and 400 μg/mL hygromycin for 2 weeks. Single cell clones were generated by infinite dilution in DMEM supplemented with 10% FBS and 400 μg/mL hygromycin until single colonies were obtained. […] For testing of inhibitors, cells were harvested at 80% confluency with 0.05% Trypsan-EDTA, washed once in PBS, and reconstituted in DMEM+0.1% BSA media at a cell concentration of 600,000 cells/mL for the CYP11B2 assay and 280,000 cells/mL for the CYP11B1 assay. 25 μL of cells were added to a 384 well tissue culture treated plate and mixed with 0.3 μL of inhibitor or DMSO (1% final DMSO concentration) for 1 hour at 37° C., 5% CO2. After pre-incubation with inhibitor, the reaction was initiated by adding 5 μL of substrate (final concentration of 125 nM 11-deoxycorticosterone for the CYP11B2 assay or 250 nM 11-deoxycortisol for the CYP11B1 assay). The reaction was carried out for 3 hours at 37° C., 5% CO2 and was stopped by harvesting the supernatants. The amount of product in the supernatant (aldosterone for CYP11B2 assay and cortisol for the CYP11B1 assay) was measured using HTRF-based assay kit (Aldosterone HTRF-CisBio#64ALDPEB, Cortisol HTRF-CisBio #63IDC002-CORT). IC50s for the inhibitor were determined by plotting the amount of product formed against the concentration of inhibitor using sigmoidal dose-response curve (variable slope) fit in GraphPad.
(§2) For the CYP11B2 assay, cells were reconstituted in DMEM+0.1% BSA media at a cell concentration of 600,000 cells/mL and for the CYP11B1 assay cells were reconstituted in DMEM+0.1% BSA media at a cell concentration of 280,000 cells/mL. 25 μl of cells were added to a 384 well tissue culture treated plate and mixed with […] or DMSO (1% final DMSO concentration) for 1 hour at 37° C., 5% CO2.

human CYP11B2 = human CYP11B2 (Homo sapiens (Human), UniProt P19099); assay: V79-Human-CYP11B2 cell assay, modified protocol; assay type: cell-based; conditions: V79 cells expressing human CYP11B2
Protocol: as §1, §2

Chain of human CYP11B2 (P19099 25-503): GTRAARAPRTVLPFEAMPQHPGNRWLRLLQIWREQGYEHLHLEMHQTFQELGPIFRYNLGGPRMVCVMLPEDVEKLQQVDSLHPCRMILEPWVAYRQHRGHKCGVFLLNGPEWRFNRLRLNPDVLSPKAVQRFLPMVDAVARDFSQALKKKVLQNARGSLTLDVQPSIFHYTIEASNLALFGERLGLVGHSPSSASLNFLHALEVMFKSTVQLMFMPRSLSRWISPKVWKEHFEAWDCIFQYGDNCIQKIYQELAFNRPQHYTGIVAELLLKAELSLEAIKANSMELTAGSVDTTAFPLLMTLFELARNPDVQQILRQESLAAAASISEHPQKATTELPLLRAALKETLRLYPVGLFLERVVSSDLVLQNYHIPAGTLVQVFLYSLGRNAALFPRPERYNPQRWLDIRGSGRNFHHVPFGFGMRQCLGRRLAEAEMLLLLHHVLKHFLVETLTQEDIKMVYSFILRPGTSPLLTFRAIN
Chain of human CYP11B1 (P15538 25-503): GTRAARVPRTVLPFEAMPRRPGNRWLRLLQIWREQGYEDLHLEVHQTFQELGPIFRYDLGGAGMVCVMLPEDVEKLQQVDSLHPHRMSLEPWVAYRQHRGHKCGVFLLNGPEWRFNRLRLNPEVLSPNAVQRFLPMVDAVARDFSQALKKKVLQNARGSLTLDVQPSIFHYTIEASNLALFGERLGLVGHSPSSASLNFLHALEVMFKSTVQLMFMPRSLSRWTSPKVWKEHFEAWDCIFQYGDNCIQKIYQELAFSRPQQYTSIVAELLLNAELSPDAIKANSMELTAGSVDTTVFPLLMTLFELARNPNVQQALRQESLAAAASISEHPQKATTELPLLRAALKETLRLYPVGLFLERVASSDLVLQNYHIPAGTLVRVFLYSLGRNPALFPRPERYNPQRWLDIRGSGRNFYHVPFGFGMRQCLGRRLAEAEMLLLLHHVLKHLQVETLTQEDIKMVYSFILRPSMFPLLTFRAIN

| SMILES | IC50 (human CYP11B1) | IC50 (human CYP11B2) |
| --- | --- | --- |
| CC(=S)N1CCc2cc(-c3cccnc3)ccc21 [Example 34, 1-(5-(pyridin-3-yl)indolin-1-yl)ethanethione] | 3380 nM | 6 nM |
| CC(=O)n1ccc2cc(-c3cccnc3)ccc21 [Example 50, 1-Acetyl-5-pyridin-3-yl-1H-indole] | 1380 nM | 23 nM |
| COc1cncc(-c2ccc3c(c2)CCN3C(C)=O)c1 [Example 54, 1-acetyl-5-(5-methoxypyridin-3-yl)-2,3-dihydro-1H-indole] | 803 nM | 16 nM |
| CC(=O)N1CCc2cc(-c3cnccc3C)ccc21 [Example 58, 1-acetyl-5-(4-methylpyridin-3-yl)-2,3-dihydro-1H-indole] | 366 nM | 2.2 nM |
